# How the values were obtained:
# Experiment in all cases: relative viability (nuclei count vs DMSO), 5 days (fraction); higher = more cells survive
# HARA = tested on: HARA
# Summary of the method: (§1)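 Lung cancer cell lines in 1536-well plates were dosed by pin tool the day after seeding, either with one drug alone or with a fixed anchor-drug dose plus five library-drug doses (not always all listed) in √10 steps. After 5 days, cells were fixed and their nuclei stained in one step (final 0.05% Triton X-100, 1% formaldehyde, 1 ug/ml Hoechst), then counted on 4× images. Relative viability is the nuclei count in treated wells divided by that in vehicle wells. Values are medians of duplicate plates.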
# NCI-H838 = tested on: NCI-H838
# Summary of the method: as §1
# EKVX = tested on: EKVX
# Summary of the method: as §1
# NCI-H2170 = tested on: NCI-H2170
# Summary of the method: as §1
# CAL-12T = tested on: CAL-12T
# Summary of the method: as §1
# NCI-H2009 = tested on: NCI-H2009
# Summary of the method: as §1
# NCI-H661 = tested on: NCI-H661
# Summary of the method: as §1
# NCI-H1437 = tested on: NCI-H1437
# Summary of the method: as §1
# ABC-1 = tested on: ABC-1
# Summary of the method: as §1
# BEN = tested on: BEN
# Summary of the method: as §1
# NCI-H2023 = tested on: NCI-H2023
# Summary of the method: as §1
# PC-14 = tested on: PC-14
# Summary of the method: as §1
# COR-L23 = tested on: COR-L23
# Summary of the method: as §1
# NCI-H3122 = tested on: NCI-H3122
# Summary of the method: as §1
# 201T = tested on: 201T
# Summary of the method: as §1
# COR-L 105 = tested on: COR-L 105
# Summary of the method: as §1
# NCI-H1650 = tested on: NCI-H1650
# Summary of the method: as §1
# NCI-H1666 = tested on: NCI-H1666
# Summary of the method: as §1
# LU99A = tested on: LU99A
# Summary of the method: as §1
# LK-2 = tested on: LK-2
# Summary of the method: as §1
# NCI-H727 = tested on: NCI-H727
# Summary of the method: as §1
# HCC-366 = tested on: HCC-366
# Summary of the method: as §1
smiles,measurement,setting,value
COc1cc(N2CCC(C(N)=O)CC2)ccc1Nc1nc(N)c(Cl)c(Nc2ccccc2S(=O)(=O)C(C)C)n1 [HG-5-88-01] + CS(=O)(=O)CCNCc1ccc(-c2ccc3ncnc(Nc4ccc(OCc5cccc(F)c5)c(Cl)c4)c3c2)o1 [Lapatinib] (partner 2 µM),relative viability,HARA; first compound 0.04 µM,0.754
same,relative viability,HARA; first compound 0.1265 µM,0.528
same,relative viability,HARA; first compound 0.4 µM,0.671
same,relative viability,HARA; first compound 1.265 µM,0.71
same,relative viability,HARA; first compound 4 µM,0.31
same,relative viability,NCI-H838; first compound 0.04 µM,0.906
same,relative viability,NCI-H838; first compound 0.1265 µM,0.952
same,relative viability,NCI-H838; first compound 0.4 µM,0.797
same,relative viability,NCI-H838; first compound 1.265 µM,0.708
same,relative viability,NCI-H838; first compound 4 µM,0.498
same,relative viability,EKVX; first compound 0.04 µM,0.212
same,relative viability,EKVX; first compound 0.1265 µM,0.215
same,relative viability,EKVX; first compound 0.4 µM,0.184
same,relative viability,EKVX; first compound 4 µM,0.15
same,relative viability,NCI-H2170; first compound 0.04 µM,0.247
same,relative viability,NCI-H2170; first compound 0.1265 µM,0.275
same,relative viability,NCI-H2170; first compound 0.4 µM,0.251
same,relative viability,NCI-H2170; first compound 1.265 µM,0.267
same,relative viability,NCI-H2170; first compound 4 µM,0.251
same,relative viability,CAL-12T; first compound 0.04 µM,0.618
same,relative viability,CAL-12T; first compound 0.1265 µM,0.698
same,relative viability,CAL-12T; first compound 0.4 µM,0.641
same,relative viability,CAL-12T; first compound 1.265 µM,0.32
same,relative viability,CAL-12T; first compound 4 µM,0.359
same,relative viability,NCI-H2009; first compound 0.04 µM,0.943
same,relative viability,NCI-H2009; first compound 0.1265 µM,1.01
same,relative viability,NCI-H2009; first compound 0.4 µM,0.843
same,relative viability,NCI-H2009; first compound 1.265 µM,0.939
same,relative viability,NCI-H2009; first compound 4 µM,0.433
same,relative viability,NCI-H661; first compound 0.04 µM,0.505
same,relative viability,NCI-H661; first compound 0.1265 µM,0.518
same,relative viability,NCI-H661; first compound 0.4 µM,0.487
same,relative viability,NCI-H661; first compound 4 µM,0.542
same,relative viability,NCI-H1437; first compound 0.04 µM,0.8
same,relative viability,NCI-H1437; first compound 0.1265 µM,0.945
same,relative viability,NCI-H1437; first compound 0.4 µM,0.756
same,relative viability,NCI-H1437; first compound 1.265 µM,0.761
same,relative viability,NCI-H1437; first compound 4 µM,0.454
same,relative viability,ABC-1; first compound 0.04 µM,1.2
same,relative viability,ABC-1; first compound 0.1265 µM,1.12
same,relative viability,ABC-1; first compound 0.4 µM,0.996
same,relative viability,ABC-1; first compound 1.265 µM,0.624
same,relative viability,ABC-1; first compound 4 µM,1.32
same,relative viability,BEN; first compound 0.04 µM,0.817
same,relative viability,BEN; first compound 0.1265 µM,0.743
same,relative viability,BEN; first compound 0.4 µM,0.66
same,relative viability,BEN; first compound 1.265 µM,0.586
same,relative viability,BEN; first compound 4 µM,0.545
same,relative viability,NCI-H2023; first compound 0.04 µM,0.926
same,relative viability,NCI-H2023; first compound 0.1265 µM,1.32
same,relative viability,NCI-H2023; first compound 0.4 µM,0.573
same,relative viability,NCI-H2023; first compound 1.265 µM,0.708
same,relative viability,NCI-H2023; first compound 4 µM,0.335
same,relative viability,PC-14; first compound 0.04 µM,0.358
same,relative viability,PC-14; first compound 0.1265 µM,0.307
same,relative viability,PC-14; first compound 0.4 µM,0.242
same,relative viability,PC-14; first compound 1.265 µM,0.267
same,relative viability,PC-14; first compound 4 µM,0.25
same,relative viability,COR-L23; first compound 0.04 µM,0.998
same,relative viability,COR-L23; first compound 0.1265 µM,1.07
same,relative viability,COR-L23; first compound 0.4 µM,0.957
same,relative viability,COR-L23; first compound 1.265 µM,0.921
same,relative viability,COR-L23; first compound 4 µM,0.629
same,relative viability,NCI-H3122; first compound 0.04 µM,0.763
same,relative viability,NCI-H3122; first compound 0.1265 µM,0.357
same,relative viability,NCI-H3122; first compound 0.4 µM,0.281
same,relative viability,NCI-H3122; first compound 1.265 µM,0.221
same,relative viability,NCI-H3122; first compound 4 µM,0.2
same,relative viability,201T; first compound 0.04 µM,1.03
same,relative viability,201T; first compound 0.1265 µM,0.922
same,relative viability,201T; first compound 0.4 µM,1.01
same,relative viability,201T; first compound 1.265 µM,1.07
same,relative viability,201T; first compound 4 µM,1.14
same,relative viability,COR-L 105; first compound 0.04 µM,0.346
same,relative viability,COR-L 105; first compound 0.1265 µM,0.375
same,relative viability,COR-L 105; first compound 0.4 µM,0.329
same,relative viability,COR-L 105; first compound 1.265 µM,0.336
same,relative viability,COR-L 105; first compound 4 µM,0.334
same,relative viability,NCI-H1650; first compound 0.04 µM,0.785
same,relative viability,NCI-H1650; first compound 0.1265 µM,0.869
same,relative viability,NCI-H1650; first compound 0.4 µM,0.928
same,relative viability,NCI-H1650; first compound 1.265 µM,0.799
same,relative viability,NCI-H1650; first compound 4 µM,0.29
same,relative viability,NCI-H1666; first compound 0.04 µM,0.742
same,relative viability,NCI-H1666; first compound 0.1265 µM,0.742
same,relative viability,NCI-H1666; first compound 0.4 µM,0.5
same,relative viability,NCI-H1666; first compound 1.265 µM,0.463
same,relative viability,NCI-H1666; first compound 4 µM,0.293
same,relative viability,LU99A; first compound 0.04 µM,1.03
same,relative viability,LU99A; first compound 0.1265 µM,1.02
same,relative viability,LU99A; first compound 0.4 µM,1
same,relative viability,LU99A; first compound 1.265 µM,0.988
same,relative viability,LU99A; first compound 4 µM,0.721
same,relative viability,LK-2; first compound 0.04 µM,0.94
same,relative viability,LK-2; first compound 0.1265 µM,0.841
same,relative viability,LK-2; first compound 0.4 µM,0.792
same,relative viability,LK-2; first compound 1.265 µM,0.42
same,relative viability,LK-2; first compound 4 µM,0.885
same,relative viability,NCI-H727; first compound 0.04 µM,0.834
same,relative viability,NCI-H727; first compound 0.1265 µM,0.93
same,relative viability,NCI-H727; first compound 0.4 µM,0.669
same,relative viability,NCI-H727; first compound 1.265 µM,0.583
same,relative viability,NCI-H727; first compound 4 µM,0.39
same,relative viability,HCC-366; first compound 0.04 µM,1.04
same,relative viability,HCC-366; first compound 0.1265 µM,1.04
same,relative viability,HCC-366; first compound 0.4 µM,0.863
same,relative viability,HCC-366; first compound 1.265 µM,1.08
same,relative viability,HCC-366; first compound 4 µM,1.29

# Reference: the supplement of paper PMC10307832
